Five molecules from US6465457B1 (priority 1991, dated 2002) can be followed below.

Holding throughout (assay type): in vivo
For test [1], the system named is Erysiphe graminis tritici (Wheat). Description: Foliar fungal disease test on plants: Erysiphe graminis tritici (Wheat). The settings on record: plants inoculated 24 hours before treatment.
The test system of another test is Septoria nodorum (Wheat). Description: Foliar fungal disease test on plants: Septoria nodorum (Wheat). The following applies: one or two days before inoculation.
Test [2] concerns Puccinia recondita (Wheat). The test can be described thus: Foliar fungal disease test on plants: Puccinia recondita (Wheat).
Test [3] relates to Plasmopara viticola (Vines). Description: Foliar fungal disease test on plants: Plasmopara viticola (Vines). The settings on record: one or two days before inoculation.
For test [4], the system named is Phytophthora infestans (Tomatoes). The settings on record: one or two days before inoculation.
In test [5] the test system is Pyricularia oryzae (Rice). The settings on record: one or two days before inoculation.
The test system of test [6] is Venturia inaequalis (Apples). Description: Foliar fungal disease test on plants: Venturia inaequalis (Apples). The following applies: one or two days before inoculation.
In test [7] the test system is Thanatephorus cucumeries (Rice). Description: Foliar fungal disease test on plants: Thanatephorus cucumeries (Rice). The settings on record: one or two days before inoculation.
The mark [8] stands for this setting: 100 ppm a.i. foliar spray or root drench (approx. 40 ppm in dry soil).
[9] abbreviates: 100 ppm a.i. foliar spray or root drench, plants inoculated with Puccinia recondita 48 hours before treatment.

The structures appear in SMILES notation. Read-outs that look alike come from different tables or passages of the source.

Turning to `COC=C(C(=O)OC)c1ccccc1COC(=O)N(C)c1ccc(F)c([N+](=O)[O-])c1` [105 (2)], the “POCO (Percentage of Control) disease level, Erysiphe graminis tritici (Wheat)” value in test [1] (setting [8]) is listed as 0 (0 = 0% disease present). Further, the “POCO (Percentage of Control) disease level, Septoria nodorum (Wheat)” value with Septoria nodorum (Wheat) (setting [8]) was 90 (90 and 94 = 60.1-100% disease present). Also, in test [2] (setting [9]), the “POCO (Percentage of Control) disease level, Puccinia recondita (Wheat)” value was 90+ (90 and 94 = 60.1-100% disease present). The “POCO (Percentage of Control) disease level, Plasmopara viticola (Vines)” value in test [3] (setting [8]) is 0 (0 = 0% disease present). For the same molecule, in test [4] (setting [8]), the “POCO (Percentage of Control) disease level, Phytophthora infestans (Tomatoes)” value is 0 (0 = 0% disease present). Besides, the “POCO (Percentage of Control) disease level, Pyricularia oryzae (Rice)” value in test [5] (setting [8]) is 5 (5 = 3.1-5% disease present). The “POCO (Percentage of Control) disease level, Venturia inaequalis (Apples)” value in test [6] (setting [8]) is 10 (10 = 5.1-10% disease present). Besides, in test [7] (setting [8]), the “POCO (Percentage of Control) disease level, Thanatephorus cucumeries (Rice)” value is 0 (0 = 0% disease present).

For the molecule `COC=C(C(=O)OC)c1ccccc1COC(=O)n1ccc2ccccc21` [1 (133)], the “POCO (Percentage of Control) disease level, Erysiphe graminis tritici (Wheat)” value in test [1] (10 ppm foliar spray only) is 90 (90 and 94 = 60.1-100% disease present). Also, the “POCO (Percentage of Control) disease level, Septoria nodorum (Wheat)” value with Septoria nodorum (Wheat) (10 ppm foliar spray only) was 90 (90 and 94 = 60.1-100% disease present). Moreover, the “POCO (Percentage of Control) disease level, Puccinia recondita (Wheat)” value in test [2] (10 ppm foliar spray only, plants inoculated with Puccinia recondita 48 hours before treatment) was 90+ (90 and 94 = 60.1-100% disease present). Moreover, in test [3] (10 ppm foliar spray only), the “POCO (Percentage of Control) disease level, Plasmopara viticola (Vines)” value is 0 (0 = 0% disease present). Moreover, the “POCO (Percentage of Control) disease level, Phytophthora infestans (Tomatoes)” value in test [4] (10 ppm foliar spray only) is 90 (90 and 94 = 60.1-100% disease present). Moreover, the “POCO (Percentage of Control) disease level, Pyricularia oryzae (Rice)” value in test [5] (10 ppm foliar spray only) is 90 (90 and 94 = 60.1-100% disease present). In test [6] (10 ppm foliar spray only), the “POCO (Percentage of Control) disease level, Venturia inaequalis (Apples)” value was 30 (30 = 20.1-30% disease present). Further, the “POCO (Percentage of Control) disease level, Thanatephorus cucumeries (Rice)” value in test [7] (10 ppm foliar spray only) is on record as 60 (60 = 30.1-60% disease present).

For the molecule `CCN(C(=O)OCc1ccccc1C(=COC)C(=O)OC)c1ccc(F)cc1` [13 (3)], the “POCO (Percentage of Control) disease level, Erysiphe graminis tritici (Wheat)” value in test [1] (setting [8]) was 0 (0 = 0% disease present). The “POCO (Percentage of Control) disease level, Septoria nodorum (Wheat)” value in the test on Septoria nodorum (Wheat) (setting [8]) is listed as 0 (0 = 0% disease present). In addition, the “POCO (Percentage of Control) disease level, Puccinia recondita (Wheat)” value in test [2] (setting [9]) is reported as 0+ (0 = 0% disease present). The “POCO (Percentage of Control) disease level, Plasmopara viticola (Vines)” value in test [3] (setting [8]) is 0 (0 = 0% disease present). In addition, the “POCO (Percentage of Control) disease level, Phytophthora infestans (Tomatoes)” value in test [4] (setting [8]) is listed as 0 (0 = 0% disease present). Further, in test [5] (setting [8]), the “POCO (Percentage of Control) disease level, Pyricularia oryzae (Rice)” value was 0 (0 = 0% disease present). In addition, the “POCO (Percentage of Control) disease level, Venturia inaequalis (Apples)” value in test [6] (setting [8]) is on record as 0 (0 = 0% disease present). Besides, in test [7] (setting [8]), the “POCO (Percentage of Control) disease level, Thanatephorus cucumeries (Rice)” value is reported as 0 (0 = 0% disease present).

As for `C#CCN(C(=O)OCc1ccccc1C(=COC)C(=O)OC)c1ccccc1OC` [16 (15)], the “POCO (Percentage of Control) disease level, Erysiphe graminis tritici (Wheat)” value in test [1] (setting [8]) is on record as 0 (0 = 0% disease present). For the same molecule, in the test with Septoria nodorum (Wheat) (setting [8]), the “POCO (Percentage of Control) disease level, Septoria nodorum (Wheat)” value is reported as 10 (10 = 5.1-10% disease present). In test [2] (setting [9]), the “POCO (Percentage of Control) disease level, Puccinia recondita (Wheat)” value was 60+ (60 = 30.1-60% disease present). Moreover, the “POCO (Percentage of Control) disease level, Plasmopara viticola (Vines)” value in test [3] (setting [8]) is reported as 0 (0 = 0% disease present). In addition, in test [4] (setting [8]), the “POCO (Percentage of Control) disease level, Phytophthora infestans (Tomatoes)” value is 5 (5 = 3.1-5% disease present). Further, the “POCO (Percentage of Control) disease level, Pyricularia oryzae (Rice)” value in test [5] (setting [8]) is given as 0 (0 = 0% disease present). Also, the “POCO (Percentage of Control) disease level, Venturia inaequalis (Apples)” value in test [6] (setting [8]) was 1 (1 = 0.1-1% disease present). Further, the “POCO (Percentage of Control) disease level, Thanatephorus cucumeries (Rice)” value in test [7] (setting [8]) is 0 (0 = 0% disease present).

Regarding `COC=C(C(=O)OC)c1ccccc1COC(=S)Nc1cccc(C(F)(F)F)c1` [2 (6)], in test [1] (setting [8]), the “POCO (Percentage of Control) disease level, Erysiphe graminis tritici (Wheat)” value is 60 (60 = 30.1-60% disease present). Moreover, in the test on Septoria nodorum (Wheat) (setting [8]), the “POCO (Percentage of Control) disease level, Septoria nodorum (Wheat)” value was 60 (60 = 30.1-60% disease present). Besides, the “POCO (Percentage of Control) disease level, Puccinia recondita (Wheat)” value in test [2] (100 ppm a.i. foliar spray or root drench (approx. 40 ppm in dry soil), one or two days before inoculation) was 30 (30 = 20.1-30% disease present). Moreover, the “POCO (Percentage of Control) disease level, Plasmopara viticola (Vines)” value in test [3] (setting [8]) is given as 30 (30 = 20.1-30% disease present). The “POCO (Percentage of Control) disease level, Phytophthora infestans (Tomatoes)” value in test [4] (setting [8]) is 60 (60 = 30.1-60% disease present). In test [5] (setting [8]), the “POCO (Percentage of Control) disease level, Pyricularia oryzae (Rice)” value is on record as 5 (5 = 3.1-5% disease present). Also, the “POCO (Percentage of Control) disease level, Venturia inaequalis (Apples)” value in test [6] (setting [8]) is listed as 3 (3 = 1.1-3% disease present). The “POCO (Percentage of Control) disease level, Thanatephorus cucumeries (Rice)” value in test [7] (setting [8]) was 90 (90 and 94 = 60.1-100% disease present).
